Reference: US6358885B1, “Substituted phenylheterocyclic herbicides” (Mississippi State University, priority 1992, dated 2002)

Key:
chickweed = test: Test B preemergence/postemergence greenhouse plant response rating 0 to 10; format: in vivo, Stellaria media; details: 0 to 10 scale
Outline: (§1)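 Test chemicals, dissolved in a non-phytotoxic solvent, were applied to soil at planting and, at the same time, over foliage of seedlings at the one to four leaf stage.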

corn [1] = test: as above; format: in vivo, Zea mays; details: for Plant response rating, Corn: 0 to 10 scale
Outline: as §1

morningglory [2] = test: as above; format: in vivo, Ipomoea hederacea; details: 0 to 10 scale
Outline: as §1

soybean = test: as above; format: in vivo, Glycine max; details: 0 to 10 scale
Outline: as §1

sugar beet = test: as above; format: in vivo, Beta vulgaris; details: 0 to 10 scale
Outline: as §1

velvetleaf [3] = test: as above; format: in vivo, Abutilon theophrasti; details: 0 to 10 scale
Outline: as §1

corn [4] = test: Test C preemergence/postemergence greenhouse plant response rating 0 to 100; format: in vivo, Zea mays; details: POSTEMERGENCE; for Plant response rating, Corn: 0 to 100 scale
Outline: (§2)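 Compounds in non-phytotoxic solvent went onto sandy loam before emergence (seeded one day earlier) or onto plants at the one-to-four leaf stage. Duck salad was treated via flood water (~2.5 cm, maintained) over silt loam.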

crabgrass = test: as above; format: in vivo, Digitaria sanguinalis; details: POSTEMERGENCE; for Plant response rating, Crabgrass: 0 to 100 scale
Outline: as §2

lambsquarters = test: as above; format: in vivo, Chenopodium album; details: POSTEMERGENCE; for Plant response rating Lambsquarters: 0 to 100 scale
Outline: as §2

morningglory [5] = test: as above; format: in vivo, Ipomoea hederacea; details: POSTEMERGENCE; for Plant response rating, Morningglory: 0 to 100 scale
Outline: as §2

velvetleaf [6] = test: as above; format: in vivo, Abutilon theophrasti; details: POSTEMERGENCE; for Plant response rating, Velvetleaf: 0 to 100 scale
Outline: as §2

wheat = test: as above; format: in vivo, Triticum aestivum; details: POSTEMERGENCE; for Plant response rating, Wheat: 0 to 100 scale
Outline: as §2

bermudagrass = test: Test G preemergence/postemergence greenhouse plant response rating 0 to 100; format: in vivo, Cynodon dactylon; details: 0 to 100 scale
Outline: (§3)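 Greenhouse pots, one species each; non-phytotoxic solvent vehicle. Read-out: visual injury vs untreated, 13–21 DAT. Dash denotes no result.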

large crabgrass = test: as above; format: in vivo, Digitaria sanguinalis; details: 0 to 100 scale
Outline: as §3

## C#CCN1C(=O)COc2cc(F)c(-c3nn4c(c3Cl)CCCC4)cc21 [Compound 34]
chickweed; POSTEMERGENCE, Rate 10 g/ha
  Plant response rating, Chickweed: 10
chickweed; POSTEMERGENCE, Rate 50 g/ha
  Plant response rating, Chickweed: 10
Corn [1]; POSTEMERGENCE, Rate 10 g/ha
  Plant response rating, Corn: 4
Corn [1]; POSTEMERGENCE, Rate 50 g/ha
  Plant response rating, Corn: 4
Corn [1]; PREEMERGENCE, Rate 50 g/ha
  Plant response rating, Corn: 0
Morningglory [2]; POSTEMERGENCE, Rate 10 g/ha
  Plant response rating, Morningglory: 9
Morningglory [2]; POSTEMERGENCE, Rate 50 g/ha
  Plant response rating, Morningglory: 1
Morningglory [2]; PREEMERGENCE, Rate 50 g/ha
  Plant response rating, Morningglory: 2
soybean; POSTEMERGENCE, Rate 10 g/ha
  Plant response rating, Soybean: 8
soybean; POSTEMERGENCE, Rate 50 g/ha
  Plant response rating, Soybean: 10
soybean; PREEMERGENCE, Rate 50 g/ha
  Plant response rating, Soybean: 6
Sugar beet; POSTEMERGENCE, Rate 10 g/ha
  Plant response rating, Sugar beet: 10
Sugar beet; POSTEMERGENCE, Rate 50 g/ha
  Plant response rating, Sugar beet: 10
Sugar beet; PREEMERGENCE, Rate 50 g/ha
  Plant response rating, Sugar beet: 9
Velvetleaf [3]; POSTEMERGENCE, Rate 10 g/ha
  Plant response rating, Velvetleaf: 10
Velvetleaf [3]; POSTEMERGENCE, Rate 50 g/ha
  Plant response rating, Velvetleaf: 1
Velvetleaf [3]; PREEMERGENCE, Rate 50 g/ha
  Plant response rating, Velvetleaf: 10
Corn [4]; 62 g/ha
  Plant response rating, Corn: 50
Corn [4]; Rate 1 g/ha
  Plant response rating (0 to 100), Corn: 20
Corn [4]; Rate 4 g/ha
  Plant response rating (0 to 100), Corn: 30
Corn [4]; Rate 16 g/ha
  Plant response rating (0 to 100), Corn: 40
crabgrass; 62 g/ha
  Plant response rating, Crabgrass: 60
crabgrass; Rate 1 g/ha
  Plant response rating (0 to 100), Crabgrass: 10
crabgrass; Rate 4 g/ha
  Plant response rating (0 to 100), Crabgrass: 20
crabgrass; Rate 16 g/ha
  Plant response rating (0 to 100), Crabgrass: 30
lambsquarters; 62 g/ha
  Plant response rating Lambsquarters: 100
lambsquarters; Rate 1 g/ha
  Plant response rating (0 to 100), Lambsquarters: 80
lambsquarters; Rate 4 g/ha
  Plant response rating (0 to 100), Lambsquarters: 100
lambsquarters; Rate 16 g/ha
  Plant response rating (0 to 100), Lambsquarters: 100
Morningglory [5]; 62 g/ha
  Plant response rating, Morningglory: 100
Morningglory [5]; Rate 1 g/ha
  Plant response rating (0 to 100), Morningglory: 60
Morningglory [5]; Rate 4 g/ha
  Plant response rating (0 to 100), Morningglory: 100
Morningglory [5]; Rate 16 g/ha
  Plant response rating (0 to 100), Morningglory: 100
Velvetleaf [6]; 62 g/ha
  Plant response rating, Velvetleaf: 100
Velvetleaf [6]; Rate 1 g/ha
  Plant response rating (0 to 100), Velvetleaf: 100
Velvetleaf [6]; Rate 4 g/ha
  Plant response rating (0 to 100), Velvetleaf: 100
Velvetleaf [6]; Rate 16 g/ha
  Plant response rating (0 to 100), Velvetleaf: 100
wheat; 62 g/ha
  Plant response rating, Wheat: 50
wheat; Rate 1 g/ha
  Plant response rating (0 to 100), Wheat: 20
wheat; Rate 4 g/ha
  Plant response rating (0 to 100), Wheat: 30
wheat; Rate 16 g/ha
  Plant response rating (0 to 100), Wheat: 40
bermudagrass; POSTEMERGENCE, Rate 125 g/ha
  Plant response rating, Bermudagrass: 0
bermudagrass; POSTEMERGENCE, Rate 250 g/ha
  Plant response rating, Bermudagrass: 0
bermudagrass; PREEMERGENCE, Rate 125 g/ha
  Plant response rating, Bermudagrass: 0
bermudagrass; PREEMERGENCE, Rate 250 g/ha
  Plant response rating, Bermudagrass: 0
Large crabgrass; POSTEMERGENCE, Rate 125 g/ha
  Plant response rating, Large Crabgrass: 0
Large crabgrass; POSTEMERGENCE, Rate 250 g/ha
  Plant response rating, Large Crabgrass: 0
Large crabgrass; PREEMERGENCE, Rate 125 g/ha
  Plant response rating, Large Crabgrass: 0
Large crabgrass; PREEMERGENCE, Rate 250 g/ha
  Plant response rating, Large Crabgrass: 60

## COc1cc(-c2nn3c(c2Cl)CCCC3)c(F)cc1Cl [Compound 29]
chickweed; POSTEMERGENCE, Rate 200 g/ha
  Plant response rating, Chickweed: 8
chickweed; PREEMERGENCE, Rate 50 g/ha
  Plant response rating, Chickweed: 3
chickweed; Rate 200 g/ha, PREEMERGENCE
  Plant response rating, Chickweed: 7
Corn [1]; POSTEMERGENCE, Rate 50 g/ha
  Plant response rating (0 to 10 scale), Corn: 6
Corn [1]; POSTEMERGENCE, Rate 200 g/ha
  Plant response rating, Corn: 7
Corn [1]; PREEMERGENCE, Rate 50 g/ha
  Plant response rating, Corn: 0
Corn [1]; Rate 200 g/ha, PREEMERGENCE
  Plant response rating, Corn: 6
Morningglory [2]; POSTEMERGENCE, Rate 50 g/ha
  Plant response rating, Morningglory: 8
Morningglory [2]; PREEMERGENCE, Rate 50 g/ha
  Plant response rating, Morningglory: 2
Morningglory [2]; Rate 200 g/ha, POSTEMERGENCE
  Plant response rating, Morningglory: 10
Morningglory [2]; Rate 200 g/ha, PREEMERGENCE
  Plant response rating, Morningglory: 5
soybean; POSTEMERGENCE, Rate 50 g/ha
  Plant response rating, Soybean: 8
soybean; PREEMERGENCE, Rate 50 g/ha
  Plant response rating, Soybean: 1
soybean; Rate 200 g/ha, POSTEMERGENCE
  Plant response rating, Soybean: 9
soybean; Rate 200 g/ha, PREEMERGENCE
  Plant response rating, Soybean: 5
Sugar beet; POSTEMERGENCE, Rate 50 g/ha
  Plant response rating, Sugar beet: 10
Sugar beet; PREEMERGENCE, Rate 50 g/ha
  Plant response rating, Sugar beet: 7
Sugar beet; Rate 200 g/ha, POSTEMERGENCE
  Plant response rating, Sugar beet: 10
Sugar beet; Rate 200 g/ha, PREEMERGENCE
  Plant response rating, Sugar beet: 10
Velvetleaf [3]; POSTEMERGENCE, Rate 50 g/ha
  Plant response rating, Velvetleaf: 8
Velvetleaf [3]; PREEMERGENCE, Rate 50 g/ha
  Plant response rating, Velvetleaf: 10
Velvetleaf [3]; Rate 200 g/ha, POSTEMERGENCE
  Plant response rating, Velvetleaf: 10
Velvetleaf [3]; Rate 200 g/ha, PREEMERGENCE
  Plant response rating, Velvetleaf: 10
Corn [4]; 62 g/ha
  Plant response rating, Corn: 40
Corn [4]; 250 g/ha
  Plant response rating, Corn: 50
Corn [4]; Rate 4 g/ha
  Plant response rating (0 to 100), Corn: 20
Corn [4]; Rate 16 g/ha
  Plant response rating (0 to 100), Corn: 20
crabgrass; 62 g/ha
  Plant response rating, Crabgrass: 20
crabgrass; 250 g/ha
  Plant response rating, Crabgrass: 50
crabgrass; Rate 4 g/ha
  Plant response rating (0 to 100), Crabgrass: 0
crabgrass; Rate 16 g/ha
  Plant response rating (0 to 100), Crabgrass: 20
lambsquarters; 62 g/ha
  Plant response rating Lambsquarters: 100
lambsquarters; 250 g/ha
  Plant response rating Lambsquarters: 100
lambsquarters; Rate 4 g/ha
  Plant response rating (0 to 100), Lambsquarters: 30
lambsquarters; Rate 16 g/ha
  Plant response rating (0 to 100), Lambsquarters: 60
Morningglory [5]; 62 g/ha
  Plant response rating, Morningglory: 80
Morningglory [5]; 250 g/ha
  Plant response rating, Morningglory: 100
Morningglory [5]; Rate 4 g/ha
  Plant response rating (0 to 100), Morningglory: 70
Morningglory [5]; Rate 16 g/ha
  Plant response rating (0 to 100), Morningglory: 80
Velvetleaf [6]; 62 g/ha
  Plant response rating, Velvetleaf: 100
Velvetleaf [6]; 250 g/ha
  Plant response rating, Velvetleaf: 100
Velvetleaf [6]; Rate 4 g/ha
  Plant response rating (0 to 100), Velvetleaf: 50
Velvetleaf [6]; Rate 16 g/ha
  Plant response rating (0 to 100), Velvetleaf: 100
wheat; 62 g/ha
  Plant response rating, Wheat: 80
wheat; 250 g/ha
  Plant response rating, Wheat: 95
wheat; Rate 4 g/ha
  Plant response rating (0 to 100), Wheat: 20
wheat; Rate 16 g/ha
  Plant response rating (0 to 100), Wheat: 30
bermudagrass; POSTEMERGENCE, Rate 125 g/ha
  Plant response rating, Bermudagrass: 0
bermudagrass; POSTEMERGENCE, Rate 250 g/ha
  Plant response rating, Bermudagrass: 0
bermudagrass; PREEMERGENCE, Rate 125 g/ha
  Plant response rating, Bermudagrass: 0
bermudagrass; PREEMERGENCE, Rate 250 g/ha
  Plant response rating, Bermudagrass: 50
Large crabgrass; POSTEMERGENCE, Rate 125 g/ha
  Plant response rating, Large Crabgrass: 0
Large crabgrass; POSTEMERGENCE, Rate 250 g/ha
  Plant response rating, Large Crabgrass: 0
Large crabgrass; PREEMERGENCE, Rate 125 g/ha
  Plant response rating, Large Crabgrass: 80
Large crabgrass; PREEMERGENCE, Rate 250 g/ha
  Plant response rating, Large Crabgrass: 100
